Data reported in article PMC11203576 (International Journal of Molecular Sciences, 2024).

Molecular target: MVL (rMVL) (Microcystis viridis, UniProt Q9RHG4)
Type: binding

MVL (rMVL), sequence (Q9RHG4 2-114 limits assumed): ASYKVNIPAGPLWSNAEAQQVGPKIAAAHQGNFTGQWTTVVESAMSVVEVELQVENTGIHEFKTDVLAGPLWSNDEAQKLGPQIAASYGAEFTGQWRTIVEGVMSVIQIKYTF

## OC[C@H]1OC(O)[C@H](O)[C@@H](O)[C@H]1O (stereo partly shown) [galactose]
  % SPR signal retained at 100 mM: ~ 40%
